Article PMC9775652, “Concomitant Administration of Red Ginseng Extract with Lactic Acid Bacteria Increases the Plasma Concentration of Deglycosylated Ginsenosides in Healthy Human Subjects” (Biomolecules, 2022)

How the values were obtained:
[1] = system: LAB; assay: In vitro RGE fermentation with LAB; assay type: in vitro ADME; conditions: RGE incubated with LAB (1 billion CFU) for 7 days at 37 °C; result in words
Description: (§1) To identify the effects of LAB on ginsenoside metabolism, an in vitro fermentation study was performed according to the method of Jeon et al., with slight modifications. Briefly, RGE (10 mL, 1 pouch) and 2 g LAB (containing 1 billion CFU) were suspended in 10 mL autoclaved MRS broth (550 mg broth powder dissolved in 10 mL water). For the 15 ginsenosides, individual ginsenosides (10 μM each) and 2 g of LAB were suspended in 20 mL of autoclaved MRS broth (550 mg broth powder dissolved in 20 mL water). The mixture was incubated for 7 days in a shaking incubator at 37 °C and 300 rpm, and a 0.1 mL aliquot of the incubation mixture was collected on days 0, 3, 5, and 7. The incubation medium was diluted 100-fold with distilled water and stored at −80 °C to analyze ginsenosides using the LC-MS/MS system.
(§2) To measure the metabolic activity of ginsenosides, the formation rate of ginsenosides (pmol/day) was calculated by dividing the slope of the regression line by the amount of deglycosylated ginsenosides versus the incubation time plot by the initial concentration of individual ginsenosides.

[2] = system: LAB; assay: Incubation of individual ginsenosides with LAB (metabolic pathway); assay type: in vitro ADME; conditions: individual ginsenoside 10 μM with LAB (1 billion CFU), 7 days; GF2 to CK, CK to PPD, GRg1 to GRh1; result in words
Description: as §1, §2

[3] = molecular target: T1, P-gp (Homo sapiens, UniProt P08183); assay: Transport of ginsenosides in P-gp-overexpressing LLC-PK1-P-gp cells; assay type: in vitro ADME; conditions: for efflux ratio at 20 μM / Papp A→B at 20 μM / Papp B→A at 20 μM: pig; for efflux ratio at 20 μM: LLC-PK1, LLC-PK1-P-gp cells, B to A Papp divided by A to B Papp, read-out: ER; for Papp A→B at 20 μM / Papp B→A at 20 μM: LLC-PK1-P-gp cells, mean ± SD, n = 3; for Papp A→B at 20 μM: read-out: A to B permeability; for Papp B→A at 20 μM: read-out: B to A permeability
T1 construct: host or cells: LLC-PK1-P-gp cells (passage no. 25–28)
T1 sequence (P08183 whole entry): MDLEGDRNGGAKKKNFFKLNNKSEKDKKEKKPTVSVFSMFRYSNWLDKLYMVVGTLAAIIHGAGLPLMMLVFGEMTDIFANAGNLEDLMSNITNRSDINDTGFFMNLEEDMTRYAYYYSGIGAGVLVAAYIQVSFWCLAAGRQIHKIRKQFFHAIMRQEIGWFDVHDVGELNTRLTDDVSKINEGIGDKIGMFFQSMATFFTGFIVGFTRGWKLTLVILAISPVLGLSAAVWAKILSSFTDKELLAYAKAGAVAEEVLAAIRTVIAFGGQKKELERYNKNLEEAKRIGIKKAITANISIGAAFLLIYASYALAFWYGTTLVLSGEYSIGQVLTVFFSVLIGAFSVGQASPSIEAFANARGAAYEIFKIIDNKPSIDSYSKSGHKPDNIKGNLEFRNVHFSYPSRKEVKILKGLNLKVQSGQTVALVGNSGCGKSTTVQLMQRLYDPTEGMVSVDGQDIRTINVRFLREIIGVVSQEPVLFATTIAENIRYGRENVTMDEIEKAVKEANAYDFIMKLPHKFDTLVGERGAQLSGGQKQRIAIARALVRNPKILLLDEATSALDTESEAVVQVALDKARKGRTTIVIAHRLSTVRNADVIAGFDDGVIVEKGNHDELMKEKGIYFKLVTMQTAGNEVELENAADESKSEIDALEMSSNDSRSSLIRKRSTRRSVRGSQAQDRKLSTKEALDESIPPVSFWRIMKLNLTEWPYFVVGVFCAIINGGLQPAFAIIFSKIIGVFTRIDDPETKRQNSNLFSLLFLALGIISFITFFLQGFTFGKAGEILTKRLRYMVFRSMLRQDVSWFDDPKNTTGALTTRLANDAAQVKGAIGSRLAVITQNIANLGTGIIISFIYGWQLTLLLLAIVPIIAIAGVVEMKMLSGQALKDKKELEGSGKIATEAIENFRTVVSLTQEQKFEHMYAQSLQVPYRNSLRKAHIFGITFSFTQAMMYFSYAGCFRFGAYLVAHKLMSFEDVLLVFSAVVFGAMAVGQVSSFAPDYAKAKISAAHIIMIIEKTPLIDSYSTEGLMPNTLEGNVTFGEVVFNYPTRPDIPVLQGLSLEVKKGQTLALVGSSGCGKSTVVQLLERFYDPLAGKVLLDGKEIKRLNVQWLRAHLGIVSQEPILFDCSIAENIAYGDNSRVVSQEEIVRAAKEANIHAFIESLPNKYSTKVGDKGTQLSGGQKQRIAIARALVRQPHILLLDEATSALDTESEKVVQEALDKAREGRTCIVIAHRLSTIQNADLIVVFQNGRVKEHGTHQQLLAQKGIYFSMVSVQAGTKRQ
Description: (§3) LLC-PK1-P-gp cells (passage no. 25–28) were seeded onto collagen-coated permeable support (1.0 μm pore size) in 24-well plates at a density of 2.5 × 10^4 cells/insert and grown for 5 days with TEER values of over 500 Ω·cm^2 [24]. The A to B transport and B to A transport of GRg3, GRh2, CK, PPD, GRg1, GRh1, and PPT (20 μM each) were measured as previously described. The concentration dependency in the B to A transport of GRh2, CK, PPD, and PPT was measured in the range of 6.25–200 μM for GRh2, CK, PPD, and PPT.
(§4) For the transport study of ginsenosides in CaCo-2 cells and LLC-PK1-P-gp cells, the ginsenoside transport rate in the A to B or B to A directions was calculated from the slope of the regression line from the mean transported amounts versus time plot. The apparent permeability (Papp) was calculated using Equation (1). (1) Papp (×10^−6 cm/s)=transport rate (nmol/min)/concentration(μM)×area(cm^2)×60s
(§5) The efflux ratio was calculated by dividing the Papp of ginsenosides from the B to A direction by that from the A to B direction.
(§6) To measure the kinetic parameters of the concentration dependence on the P-gp-mediated ginsenoside efflux, the ginsenoside transport rate in the B to A direction (ν) versus the ginsenoside concentration (S) plot was fitted in the Michaelis–Menten Equation (2) using Sigma Plot (version 12.0, Systat Software Inc. Chicago, IL, USA). (2) ν=Vmax×S/Km+S

[4] = Transport (permeability) of ginsenosides in CaCo-2 cell monolayers; assay type: in vitro ADME; conditions: human
Description: CaCo-2 cells (passage no 41–43) were seeded onto collagen-coated permeable support (1.0 μm pore size) in a 24-well plate at a density of 2.5 × 10^4 cells/insert and cultured for 21 days in Dulbecco’s modified eagle’s medium supplemented with 10% fetal bovine serum, 1% non-essential amino acids, and 1% penicillin-streptomycin at 37 °C in a humidified atmosphere (5% CO2/95% air). After confirming that the transepithelial electrical resistance (TEER) of the CaCo-2 cell monolayer was over 400 Ω·cm^2, Apical to basal (A to B) transport and B to A transport of ginsenosides using 50 µM, GRb1 was investigated as previously described. The same permeability study was performed using 50 µM GRb2, GRc, GRd, GRg3, GRh2, GF2, CK, PPD, GRe, GRf, GRg1, GRh1, GF1, or PPT.
as §4, §5

[5] = rat, in vivo, po; cited from earlier work
[6] = Pharmacokinetic study of ginsenosides in healthy humans after repeated oral RGE with or without LAB; assay type: in vivo, human; conditions: male, human, in vivo, po
Description: A single-sequence study consisting of two periods was conducted on five healthy male subjects (body weight > 50 kg and age > 19 years) for 29 days. During the first period of the study (RGE treatment group), three pouches of RGE (30 mL, 104.1 mg of total ginsenosides) were administered to 5 subjects once daily for 14 days. On the 14th day, the subjects were admitted to the Clinical Trial Center of KNUH at 7 AM and underwent the last RGE administration at approximately 8–9 AM. Blood samples (approximately 3 mL) were collected at 0, 4, 6, 8, 10, 12, 13, 14, and 24 h after the last dose. A saline-locked angiocatheter was placed on the forearm of each subject’s hand. After discarding 1 mL of blood derived from the catheter, 3 mL of blood was drawn into a vacutainer tube containing heparin and centrifuged at 3000× g for 10 min. The supernatant plasma samples were stored at −80 °C until ginsenoside analysis.
In the second half of the study (RGE + LAB treatment group), 3 pouches of RGE (30 mL, 104.1 mg of total ginsenosides) and 1 pouch of LAB (1 billion CFU/2 g) were co-administered once daily for 14 days. On the […], the subjects were admitted to the Clinical Trial Center of KNUH at 7 AM and received the last red ginseng dose at approximately 8–9 AM. Blood samples (approximately 3 mL) were withdrawn at 0, 4, 6, 8, 10, 12, 13, 14, and 24 h intervals after the last dose and centrifuged at 3000× g for 10 min; the supernatant plasma samples were stored at −80 °C.
Briefly, to analyze GRb1, GRb2, GRc, GRd, GRe, GRf, GRg1, GRg3, GF1, and GF2, 400 μL of an internal standard (IS; 0.05 ng/mL berberine in methanol) was added to 100 μL of plasma. The mixture was vortexed for 15 min and centrifuged at 16,000× g for 5 min. After centrifugation, 400 μL of the supernatant was evaporated using a speed-dry vacuum concentrator (Christ, Osterode am Harz, Germany). The residue was reconstituted using 200 μL of 70% methanol supplemented with 0.1% formic acid, and a 10 μL aliquot was injected into the LC-MS/MS system. Chromatographic separation was performed using a Polar RP column (150 × 2.0 mm, 4.0 μm particle size; Phenomenex, Torrance, CA, USA) using a mobile phase consisting of 0.1% formic acid in water (phase A) and 0.1% formic acid in methanol (phase B). The following elution gradient was used: 69% of phase B for 0–2.0 min, 69–85% of phase B for 2.0–4.0 min, and 85–69% of phase B for 6.0–6.5 min. The flow rate was 0.27 mL/min.
The mixture was vortexed for 10 min and centrifuged at 16,000× g for 5 min. After centrifugation, the samples were frozen at −80 °C for 4 h. The upper layer was transferred to a clean tube and evaporated. The residue was reconstituted using 200 μL of 80% methanol supplemented with 0.1% formic acid, and a 10 μL aliquot was injected into the LC-MS/MS system. Chromatographic separation was performed using a Luna C18 column (150 × 2.0 mm, 3.0 μm particle size; Phenomenex, Torrance, CA, USA) and using a mobile phase consisting of water containing 0.1% formic acid: methanol containing 0.1% formic acid = 8:92 (v/v) at a flow rate of 0.15 mL/min.
The quantification of ginsenosides was carried out using multiple reaction monitoring in positive ionization mode, as previously described.
Finally, pharmacokinetic parameters were calculated using non-compartmental methods (WinNonlin version 5.1; Pharsight Co., Certara, NJ, USA). Statistical analysis was performed by Student’s t-test to compare the two groups using IBM SPSS Statistics for Windows (version 25.0; IBM Corp., Armonk, NY, USA). Differences were considered significant at p < 0.05.

[7] = parameters: method as in PMID 34575573; conditions: mice, LAB supplementation (Lacto-fit) for two weeks; cited from earlier work
[8] = system: T2, CC(C)=CCCC(C)(OC1OC(CO)C(O)C(O)C1O)C1CCC2(C)C1C(O)CC1C3(C)CCC(O)C(C)(C)C3CCC12C; assay: Transport of ginsenosides in P-gp-overexpressing LLC-PK1-P-gp cells; assay type: in vitro ADME; conditions: other: B to A transport rate in LLC-PK1-P-gp cells, 6.25–200 μM, Michaelis–Menten fit
T2 construct: host or cells: LLC-PK1-P-gp cells (passage no. 25–28)
Description: as §3, §4, §5, §6

[9] = system: T3, CC(C)=CCCC(C)(O)C1CCC2(C)C1C(O)CC1C3(C)CCC(O)C(C)(C)C3CCC12C; assay: as above; assay type: in vitro ADME; conditions: other: B to A transport rate in LLC-PK1-P-gp cells, 6.25–200 μM, Michaelis–Menten fit
T3 construct: host or cells: LLC-PK1-P-gp cells (passage no. 25–28)
Description: as §3, §4, §5, §6

[10] = system: T4, [H][C@@]1(O[C@H]2CC[C@]3(C)[C@@]4([H])C[C@@H](O)[C@]5([H])[C@@]([H])([C@@](C)(O)CCC=C(C)C)CC[C@@]5(C)[C@]4(C)CC[C@@]3([H])C2(C)C)O[C@H](CO)[C@@H](O)[C@H](O)[C@H]1O; assay: as above; assay type: in vitro ADME; conditions: other: B to A transport rate in LLC-PK1-P-gp cells, 6.25–200 μM, Michaelis–Menten fit
T4 construct: host or cells: LLC-PK1-P-gp cells (passage no. 25–28)
Description: as §3, §4, §5, §6

[11] = system: T5, CC(C)=CCCC(C)(O)C1CCC2(C)C1C(O)CC1C3(C)CCC(O)C(C)(C)C3C(O)CC12C; assay: as above; assay type: in vitro ADME; conditions: other: B to A transport rate in LLC-PK1-P-gp cells, 6.25–200 μM, Michaelis–Menten fit
T5 construct: host or cells: LLC-PK1-P-gp cells (passage no. 25–28)
Description: as §3, §4, §5, §6

## CC(C)=CCCC(C)(OC1OC(CO)C(O)C(O)C1O)C1CCC2(C)C1C(O)CC1C3(C)CCC(O)C(C)(C)C3C(OC3OC(CO)C(O)C(O)C3O)CC12C (stereo not drawn) [GRg1]
[1]
  Relative abundance / metabolic activity following fermentation of RGE with LAB: marked decrease
[2]
  LAB-mediated deglycosylation (formation of deglycosylated ginsenoside from the incubated ginsenoside): the highest
[3]
  efflux ratio at 20 μM: 1
  Papp A→B at 20 μM: 0.1 ± 0.02 ×10⁻⁶ cm/s
  Papp B→A at 20 μM: 0.1 ± 0.03 ×10⁻⁶ cm/s
[4]; CaCo-2 cell monolayers, 50 µM ginsenoside, read-out: A to B Papp
  Papp A→B at 50 µM: < 0.3 ×10⁻⁶ cm/s

## CC(C)=CCCC(C)(O)C1CCC2(C)C1C(O)CC1C3(C)CCC(O)C(C)(C)C3CCC12C (stereo not drawn) [PPD, 20(s)-protopanaxadiol]
[1]
  Relative abundance / metabolic activity following fermentation of RGE with LAB: significantly increased
[5]
  Oral BA: 36.8–48.1%
  Oral bioavailability (BA): 36.8–48.1%
[6]; 104.1 mg
  AUC: 130 ± 39.9 ng·h/mL
[6]; Cmax
  Cmax: 7.6 ± 1.7 ng/mL
[6]; MRT
  MRT: 18.6 ± 5 h
[6]; Tmax
  Tmax: 16 ± 18.5 h
[7]
  AUC fold increase with LAB supplementation compared to control groups: 2.67 fold
[3]; P-gp-mediated B to A transport in LLC-PK1-P-gp cells
  CLint (intrinsic clearance): 5.2 µL/min
[3]
  efflux ratio at 20 μM: 3.3
  Papp A→B at 20 μM: 0.13 ± 0.01 ×10⁻⁶ cm/s
  Papp B→A at 20 μM: 0.42 ± 0.04 ×10⁻⁶ cm/s
[4]; Caco-2, Efflux ratio (ER)
  efflux ratio at 50 µM: 2.7

## P-gp (Homo sapiens)
[8]
  Km: 98 µM
  Vmax: 67.7 nmol/min
[9]
  Km: 76 µM
  Vmax: 0.40 nmol/min
[10]
  Km: 151 µM
  Vmax: 75.9 nmol/min
[11]
  Km: 83 µM
  Vmax: 19.2 nmol/min
